Assay results published in patent US8013156B2 (Exelixis, Inc., priority 2003, dated 2011).

Biological target: Tie-2 (Homo sapiens, UniProt Q02763)
Test: Tie-2 tyrosine kinase activity assay (luciferase/luciferin ATP consumption with pEY substrate, or 33P-ATP incorporation)
Type: biochemical
Details: human enzyme Tie-2
Method in brief: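 Values are IC50 categories (A <50 nM to D ≥10,000 nM), with Ki obtainable by fitting rates to a tight-binding model. Assay formats: 33P-ATP phosphate transfer to adsorbed generic substrate counted by scintillation, or luciferase-detected ATP depletion using pEY.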

Sequence of Tie-2 (Q02763 23-1124): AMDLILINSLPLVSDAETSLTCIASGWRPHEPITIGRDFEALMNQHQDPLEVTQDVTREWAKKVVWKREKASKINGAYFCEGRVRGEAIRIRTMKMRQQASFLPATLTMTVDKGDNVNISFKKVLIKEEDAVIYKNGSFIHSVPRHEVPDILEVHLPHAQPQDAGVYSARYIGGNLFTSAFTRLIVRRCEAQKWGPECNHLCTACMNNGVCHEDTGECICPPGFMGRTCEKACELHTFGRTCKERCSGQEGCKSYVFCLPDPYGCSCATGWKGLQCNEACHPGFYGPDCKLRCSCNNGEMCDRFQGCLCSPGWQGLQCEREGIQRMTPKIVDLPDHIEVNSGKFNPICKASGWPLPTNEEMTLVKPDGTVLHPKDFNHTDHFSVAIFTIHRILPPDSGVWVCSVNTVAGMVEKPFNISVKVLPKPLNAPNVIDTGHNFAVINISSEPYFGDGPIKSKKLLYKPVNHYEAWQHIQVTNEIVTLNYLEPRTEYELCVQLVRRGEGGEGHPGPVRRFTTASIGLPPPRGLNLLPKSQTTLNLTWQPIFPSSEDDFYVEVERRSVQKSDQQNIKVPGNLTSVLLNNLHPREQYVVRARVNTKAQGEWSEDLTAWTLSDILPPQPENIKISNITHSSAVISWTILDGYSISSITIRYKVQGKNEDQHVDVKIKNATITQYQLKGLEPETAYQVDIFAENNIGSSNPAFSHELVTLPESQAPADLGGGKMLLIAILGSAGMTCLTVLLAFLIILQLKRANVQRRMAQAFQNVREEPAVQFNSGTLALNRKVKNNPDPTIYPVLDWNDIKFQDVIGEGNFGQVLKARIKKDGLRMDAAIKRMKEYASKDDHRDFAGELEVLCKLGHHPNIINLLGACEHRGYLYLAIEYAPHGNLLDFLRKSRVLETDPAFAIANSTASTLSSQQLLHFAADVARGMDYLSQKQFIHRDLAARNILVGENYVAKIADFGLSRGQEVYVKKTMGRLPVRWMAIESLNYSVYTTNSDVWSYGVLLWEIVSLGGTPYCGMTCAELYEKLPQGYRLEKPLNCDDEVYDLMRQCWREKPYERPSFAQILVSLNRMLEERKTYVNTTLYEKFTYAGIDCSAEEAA

| SMILES | IC50 [nM] |
| --- | --- |
| Nc1nccc(COc2nccnc2N2CCN(C(=O)Nc3cc(Cl)cc(C(F)(F)F)c3)CC2)n1 [Example 234, 4-(3-{[(2-aminopyrimidin-4-yl)methyl]oxy}pyrazin-2-yl)-N-[3-chloro-5-(trifluoromethyl)phenyl]piperazine-1-carboxamide] | < 50 |
| Nc1nccc(COc2cccnc2N2CCN(C(=O)Nc3cc(Cl)cc(C(F)(F)F)c3)CC2)n1 [Example 235, 4-(3-{[(2-aminopyrimidin-4-yl)methyl]oxy}pyridin-2-yl)-N-[3-chloro-5-(trifluoromethyl)phenyl]piperazine-1-carboxamide] | < 50 |
| CCc1cc(Br)cc(NC(=O)N2CCN(c3nccnc3OCc3ccnc(N)n3)CC2)c1 [Example 236, 4-(3-{[(2-aminopyrimidin-4-yl)methyl]oxy}pyrazin-2-yl)-N-(3-bromo-5-ethylphenyl)piperazine-1-carboxamide] | < 50 |
| CCc1cccc(NC(=O)N2CCN(c3nc(Cl)ccc3OCc3ccnc(N)n3)CC2)c1 [Example 237, 4-(3-{[(2-aminopyrimidin-4-yl)methyl]oxy}-6-chloropyridin-2-yl)-N-(3-ethylphenyl)piperazine-1-carboxamide] | < 50 |
| CCc1cc(Br)cc(NC(=O)N2CCN(c3nsnc3OCc3ccnc(N)n3)CC2)c1 [Example 238, 4-(4-{[(2-aminopyrimidin-4-yl)methyl]oxy}-1,2,5-thiadiazol-3-yl)-N-(3-bromo-5-ethylphenyl)piperazine-1-carboxamide] | < 50 |
| Nc1nccc(COc2nsnc2N2CCN(C(=O)Nc3cc(F)cc(C(F)(F)F)c3)CC2)n1 [Example 239, 4-(4-{[(2-aminopyrimidin-4-yl)methyl]oxy}-1,2,5-thiadiazol-3-yl)-N-[3-fluoro-5-(trifluoromethyl)phenyl]piperazine-1-carboxamide] | < 50 |
| Nc1nccc(COc2nsnc2N2CCN(C(=O)Nc3cc(Cl)cc(C(F)(F)F)c3)CC2)n1 [Example 240, 4-(4-{[(2-aminopyrimidin-4-yl)methyl]oxy}-1,2,5-thiadiazol-3-yl)-N-[3-chloro-5-(trifluoromethyl)phenyl]piperazine-1-carboxamide] | < 50 |
| CCc1cc(NC(=O)N2CCN(c3nccnc3OCc3ccnc(N)n3)CC2)ccc1F [Example 241, 4-(3-{[(2-aminopyrimidin-4-yl)methyl]oxy}pyrazin-2-yl)-N-(3-ethyl-4-fluorophenyl)piperazine-1-carboxamide] | < 50 |
| CCc1cc(CC)cc(NC(=O)N2CCN(c3nsnc3OCc3ccnc(N)n3)CC2)c1 [Example 242, 4-(4-{[(2-aminopyrimidin-4-yl)methyl]oxy}-1,2,5-thiadiazol-3-yl)-N-(3,5-diethylphenyl)piperazine-1-carboxamide] | < 50 |
| CN1CCN(CC(=O)Nc2cc(COc3cccnc3N3CCN(C(=O)Nc4cc(C(F)(F)F)cc(Cl)c4F)CC3)ccn2)CC1 [Example 243, N-[3-chloro-2-fluoro-5-(trifluoromethyl)phenyl]-4-(3-{[(2-{[(4-methylpiperazin-1-yl)acetyl]amino}pyridin-4-yl)methyl]oxy}pyridin-2-yl)piperazine-1-carboxamide] | < 50 |
| Nc1nccc(COc2ccc(Cl)nc2N2CCN(C(=O)Nc3cc(C(F)(F)F)cc(C(F)(F)F)c3)CC2)n1 [Example 244, 4-(3-{[(2-aminopyrimidin-4-yl)methyl]oxy}-6-chloropyridin-2-yl)-N-[3,5-bis(trifluoromethyl)phenyl]piperazine-1-carboxamide] | < 50 |
| CCc1cccc(NC(=O)N2CCN(c3ncccc3OC(C)c3ccnc(N)n3)CC2)c1 (stereo not drawn) [Example 245, 4-(3-{[1-(2-aminopyrimidin-4-yl)ethyl]oxy}pyridin-2-yl)-N-(3-ethylphenyl)piperazine-1-carboxamide] | < 50 |
| CCc1ccc(F)c(NC(=O)N2CCN(c3nc(Cl)ccc3OCc3ccnc(N)n3)CC2)c1 [Example 246, 4-(3-{[(2-aminopyrimidin-4-yl)methyl]oxy}-6-chloropyridin-2-yl)-N-(5-ethyl-2-fluorophenyl)piperazine-1-carboxamide] | < 50 |
| CCc1cc(F)cc(NC(=O)N2CCN(c3ncccc3OCc3ccnc(N)n3)CC2)c1 [Example 247, 4-(3-{[(2-aminopyrimidin-4-yl)methyl]oxy}pyridin-2-yl)-N-(3-ethyl-5-fluorophenyl)piperazine-1-carboxamide] | < 50 |
| Nc1nccc(COc2nsnc2N2CCN(C(=O)Nc3cc(C(F)(F)F)cc(Cl)c3F)CC2)n1 [Example 248, 4-(4-{[(2-aminopyrimidin-4-yl)methyl]oxy}-1,2,5-thiadiazol-3-yl)-N-[3-chloro-2-fluoro-5-(trifluoromethyl)phenyl]piperazine-1-carboxamide] | < 50 |
| Nc1nccc(COc2cccnc2N2CCN(C(=O)Nc3cc(C(F)(F)F)cc(Cl)c3F)CC2)n1 [Example 249, 4-(3-{[(2-aminopyrimidin-4-yl)methyl]oxy}pyridin-2-yl)-N-[3-chloro-2-fluoro-5-(trifluoromethyl)phenyl]piperazine-1-carboxamide] | < 50 |
| CN(C(=O)N1CCN(c2ncccc2OCc2ccnc(N)n2)CC1)c1cc(C(F)(F)F)cc(C(F)(F)F)c1 [Example 250, 4-(3-{[(2-aminopyrimidin-4-yl)methyl]oxy}pyridin-2-yl)-N-[3,5-bis(trifluoromethyl)phenyl]-N-methylpiperazine-1-carboxamide] | < 50 |

| SMILES | IC50 [nM] |
| --- | --- |
| CC(C)c1cccc(NC(=O)N2CCN(c3nccnc3OCc3ccnc(N)n3)CC2)c1 [Example 251, 4-(3-{[(2-aminopyrimidin-4-yl)methyl]oxy}pyrazin-2-yl)-N-[3-(1-methylethyl)phenyl]piperazine-1-carboxamide] | < 50 |
| CCc1cc(NC(=O)N2CCN(c3nsnc3OCc3ccnc(N)n3)CC2)ccc1F [Example 252, 4-(4-{[(2-aminopyrimidin-4-yl)methyl]oxy}-1,2,5-thiadiazol-3-yl)-N-(3-ethyl-4-fluorophenyl)piperazine-1-carboxamide] | 50 to 1000 |
| Nc1nccc(COc2nsnc2N2CCN(C(=O)Nc3ccc(F)c(Cl)c3)CC2)n1 [Example 253, 4-(4-{[(2-aminopyrimidin-4-yl)methyl]oxy}-1,2,5-thiadiazol-3-yl)-N-(3-chloro-4-fluorophenyl)piperazine-1-carboxamide] | 1000 to 10000 |
| COc1ccc(OC)c(NC(=O)N2CCN(c3nsnc3OCc3ccnc(N)n3)CC2)c1 [Example 254, 4-(4-{[(2-aminopyrimidin-4-yl)methyl]oxy}-1,2,5-thiadiazol-3-yl)-N-[2,5-bis(methyloxy)phenyl]piperazine-1-carboxamide] | 1000 to 10000 |
| Nc1nccc(COc2ccccc2N2CCN(C(=O)Nc3cc(C(F)(F)F)cc(C(F)(F)F)c3)CC2)n1 [Example 255, 4-(2-{[(2-aminopyrimidin-4-yl)methyl]oxy}phenyl)-N-[3,5-bis(trifluoromethyl)phenyl]piperazine-1-carboxamide] | < 50 |
| CCc1cccc(NC(=O)N2CCN(c3ccccc3OCc3ccnc(N)n3)CC2)c1 [Example 256, 4-(2-{[(2-aminopyrimidin-4-yl)methyl]oxy}phenyl)-N-(3-ethylphenyl)piperazine-1-carboxamide] | < 50 |
| Nc1nccc(COc2nsnc2N2CCN(C(=O)Nc3cc(Cl)ccc3F)CC2)n1 [Example 257, 4-(4-{[(2-aminopyrimidin-4-yl)methyl]oxy}-1,2,5-thiadiazol-3-yl)-N-(5-chloro-2-fluorophenyl)piperazine-1-carboxamide] | 1000 to 10000 |
| Nc1nccc(COc2nsnc2N2CCN(C(=O)Nc3cccc(OC(F)(F)F)c3)CC2)n1 [Example 258, 4-(4-{[(2-aminopyrimidin-4-yl)methyl]oxy}-1,2,5-thiadiazol-3-yl)-N-{3-[(trifluoromethyl)oxy]phenyl}piperazine-1-carboxamide] | < 50 |
| COc1cccc(NC(=O)N2CCN(c3nsnc3OCc3ccnc(N)n3)CC2)c1 [Example 259, 4-(4-{[(2-aminopyrimidin-4-yl)methyl]oxy}-1,2,5-thiadiazol-3-yl)-N-[3-(methyloxy)phenyl]piperazine-1-carboxamide] | 50 to 1000 |
| CCc1cc(NC(=O)N2CCN(c3nsnc3OCc3ccnc(N)n3)CC2)cc(C(F)(F)F)c1 [Example 260, 4-(4-{[(2-aminopyrimidin-4-yl)methyl]oxy}-1,2,5-thiadiazol-3-yl)-N-[3-ethyl-5-(trifluoromethyl)phenyl]piperazine-1-carboxamide] | < 50 |
| CC(C)c1cccc(NC(=O)N2CCN(c3nsnc3OCc3ccnc(N)n3)CC2)c1 [Example 261, 4-(4-{[(2-aminopyrimidin-4-yl)methyl]oxy}-1,2,5-thiadiazol-3-yl)-N-[3-(1-methylethyl)phenyl]piperazine-1-carboxamide] | < 50 |
| Nc1nccc(COc2nsnc2N2CCN(C(=O)Nc3cc(C(F)(F)F)ccc3Cl)CC2)n1 [Example 262, 4-(4-{[(2-aminopyrimidin-4-yl)methyl]oxy}-1,2,5-thiadiazol-3-yl)-N-[2-chloro-5-(trifluoromethyl)phenyl]piperazine-1-carboxamide] | 50 to 1000 |
| Nc1nccc(COc2nsnc2N2CCN(C(=O)Nc3cccc(F)c3)CC2)n1 [Example 263, 4-(4-{[(2-aminopyrimidin-4-yl)methyl]oxy}-1,2,5-thiadiazol-3-yl)-N-(3-fluorophenyl)piperazine-1-carboxamide] | 1000 to 10000 |
| CCOc1ccccc1NC(=O)N1CCN(c2nsnc2OCc2ccnc(N)n2)CC1 [Example 264, 4-(4-{[(2-aminopyrimidin-4-yl)methyl]oxy}-1,2,5-thiadiazol-3-yl)-N-[2-(ethyloxy)phenyl]piperazine-1-carboxamide] | ≥ 10000 |
| Nc1nccc(COc2nsnc2N2CCN(C(=O)Nc3ccc(F)c(F)c3)CC2)n1 [Example 265, 4-(4-{[(2-aminopyrimidin-4-yl)methyl]oxy}-1,2,5-thiadiazol-3-yl)-N-(3,4-difluorophenyl)piperazine-1-carboxamide] | ≥ 10000 |
| CSc1cccc(NC(=O)N2CCN(c3nsnc3OCc3ccnc(N)n3)CC2)c1 [Example 266, 4-(4-{[(2-aminopyrimidin-4-yl)methyl]oxy}-1,2,5-thiadiazol-3-yl)-N-[3-(methylthio)phenyl]piperazine-1-carboxamide] | 50 to 1000 |
